Results published in patent US9932381B2, “Exendin-4 derivatives as selective glucagon receptor agonists” (priority 2014, dated 2018).
Non-standard residues stand in square brackets, D forms with d. Residues, ends and D or L forms follow the SMILES beside them. Ala(4-thiazolyl) = N[C@@H](Cc1cscn1)C(=O)O; Chg = N[C@H](C(=O)O)C1CCCCC1; Tle = CC(C)(C)[C@H](N)C(=O)O; Nle = CCCC[C@H](N)C(=O)O

How the values were obtained:
[1] = target: T1, human GLP-1 receptor (hGLP-1 R) (Homo sapiens, UniProt P43220); assay: cAMP response (HTRF) of HEK-293 cells stably expressing human GLP-1 receptor; assay type: cell-based
T1 construct: expressed in transfected cells; host or cells: HEK-293
T1 sequence (P43220 24-463): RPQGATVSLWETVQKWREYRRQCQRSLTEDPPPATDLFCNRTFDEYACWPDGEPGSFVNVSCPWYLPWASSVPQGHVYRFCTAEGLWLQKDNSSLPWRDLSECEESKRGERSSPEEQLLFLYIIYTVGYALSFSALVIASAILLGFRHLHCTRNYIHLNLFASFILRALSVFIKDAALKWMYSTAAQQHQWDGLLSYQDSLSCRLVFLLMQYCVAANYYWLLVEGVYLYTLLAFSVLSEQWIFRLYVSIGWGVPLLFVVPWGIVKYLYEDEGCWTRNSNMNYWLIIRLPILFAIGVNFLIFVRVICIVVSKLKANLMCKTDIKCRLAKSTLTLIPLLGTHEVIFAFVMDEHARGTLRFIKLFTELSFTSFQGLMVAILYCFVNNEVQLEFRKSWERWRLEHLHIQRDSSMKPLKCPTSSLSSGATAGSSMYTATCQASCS
Procedure: cAMP content of cells was determined using a kit from Cisbio Corp. (cat. no. 62AM4PEC) based on HTRF (Homogenous Time Resolved Fluorescence). For preparation, cells were split into T175 culture flasks and grown overnight to near confluency in medium (DMEM/10% FBS). Medium was then removed and cells washed with PBS lacking calcium and magnesium, followed by proteinase treatment with accutase (Sigma-Aldrich cat. no. A6964). Detached cells were washed and resuspended in assay buffer (1×HBSS; 20 mM HEPES, 0.1% BSA, 2 mM IBMX) and cellular density determined. They were then diluted to 400000 cells/ml and 25 μl-aliquots dispensed into the wells of 96-well plates. For measurement, 25 μl of test compound in assay buffer was added to the wells, followed by incubation for 30 minutes at room temperature. After addition of HTRF reagents diluted in lysis buffer (kit components), the plates were incubated for 1 hr, followed by measurement of the fluorescence ratio at 665/620 nm. In vitro potency of agonists was quantified by determining the concentrations that caused 50% activation of maximal response (EC50).

[2] = target: T2, human glucagon receptor (hGLUC R) (Homo sapiens, UniProt P47871); assay: cAMP response (HTRF) of HEK-293 cells stably expressing human glucagon receptor; assay type: cell-based; conditions: Table 4; read-out: EC50 hGLUC R
T2 construct: expressed in transfected cells; host or cells: HEK-293
T2 sequence (P47871 26-477): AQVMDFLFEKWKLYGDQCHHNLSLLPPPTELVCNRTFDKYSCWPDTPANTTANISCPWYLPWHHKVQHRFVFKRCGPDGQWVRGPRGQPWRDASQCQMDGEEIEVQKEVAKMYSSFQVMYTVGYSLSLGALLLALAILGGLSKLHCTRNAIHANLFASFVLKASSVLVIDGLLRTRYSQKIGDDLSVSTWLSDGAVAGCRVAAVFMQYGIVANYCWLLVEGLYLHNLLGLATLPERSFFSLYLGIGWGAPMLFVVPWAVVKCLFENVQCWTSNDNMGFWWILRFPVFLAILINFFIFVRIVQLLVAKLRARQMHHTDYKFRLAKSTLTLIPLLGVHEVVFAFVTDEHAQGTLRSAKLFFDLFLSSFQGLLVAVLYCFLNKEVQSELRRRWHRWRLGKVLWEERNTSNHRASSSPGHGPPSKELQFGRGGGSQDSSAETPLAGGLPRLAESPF
Method in brief: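 After near-confluent growth in DMEM with 10% FBS, cells were washed in Ca/Mg-free PBS, lifted with accutase and diluted to 400000 cells/ml in IBMX (2 mM)-containing HEPES-buffered HBSS with 0.1% BSA. Compounds were applied for 30 minutes at room temperature before homogeneous time-resolved fluorescence quantitation of cAMP.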

[3] = Solubility testing of exendin-4 derivatives (HPLC-UV of supernatant); assay type: physicochemical; conditions: pH 7.4
Procedure: Prior to the testing of solubility and stability of a peptide batch, its content was determined. Therefore, two parameters were investigated, its purity (HPLC-UV) and the amount of salt load of the batch (ion chromatography).
HPLC-UV was performed after 2 h of gentle agitation from the supernatant, which was obtained by 20 min of centrifugation at 4000 rpm.

Structure (SMILES) | EC50 ([1]; Table 4) [nM] | EC50 ([1]; Table 5, Tza vs. His in position 1) [nM] | EC50 [2] [nM] | solubility at 2 h [3] [µg/mL]
CC[C@H](C)[C@H](NC(=O)[C@H](Cc1ccccc1)NC(=O)[C@H](CCC(=O)O)NC(=O)[C@H](CCC(N)=O)NC(=O)[C@H](C)NC(=O)[C@H](CCCNC(=N)N)NC(=O)[C@H](CCCNC(=N)N)NC(=O)[C@H](CO)NC(=O)[C@H](CCC(=O)O)NC(=O)[C@H](CC(C)C)NC(=O)[C@H](CCC(N)=O)NC(=O)[C@H](CCCCN)NC(=O)[C@H](CO)NC(=O)[C@@H](NC(=O)[C@H](CC(=O)O)NC(=O)[C@H](CO)NC(=O)[C@@H](NC(=O)[C@H](Cc1ccccc1)NC(=O)[C@@H](NC(=O)CNC(=O)[C@H](CCC(N)=O)NC(=O)[C@H](CO)NC(=O)[C@@H](N)Cc1cscn1)[C@@H](C)O)[C@@H](C)O)C(C)C)C(=O)N[C@@H](CCC(=O)O)C(=O)N[C@@H](Cc1c[nH]c2ccccc12)C(=O)N[C@@H](CC(C)C)C(=O)N[C@@H](CC(C)C)C(=O)N[C@@H](C)C(=O)NCC(=O)NCC(=O)N1CCC[C@H]1C(=O)N[C@@H](CCC(=O)O)C(=O)N[C@@H](CO)C(=O)NCC(=O)N[C@@H](C)C(=O)N1CCC[C@H]1C(=O)N1CCC[C@H]1C(=O)N1CCC[C@H]1C(=O)N[C@@H](CO)C(=O)O [SEQ ID NO 9, Tza-SQGTFTSDVSKQLESRRAQEFIEWLLAGGPESGAPPPS-OH] (H-[Ala(4-thiazolyl)]SQGTFTSDVSKQLESRRAQEFIEWLLAGGPESGAPPPS-OH) |  |  | 0.0022 | > 10000
CCCC[C@H](NC(=O)[C@H](CCC(N)=O)NC(=O)[C@H](CCCCN)NC(=O)[C@H](CO)NC(=O)[C@@H](NC(=O)[C@H](CC(=O)O)NC(=O)[C@H](CO)NC(=O)[C@@H](NC(=O)[C@H](Cc1ccccc1)NC(=O)[C@@H](NC(=O)CNC(=O)[C@H](CCC(N)=O)NC(=O)[C@H](CO)NC(=O)[C@@H](N)Cc1cscn1)[C@@H](C)O)[C@@H](C)O)C(C)(C)C)C(=O)N[C@@H](CCC(=O)O)C(=O)N[C@@H](CO)C(=O)N[C@@H](CCCNC(=N)N)C(=O)N[C@@H](CCCNC(=N)N)C(=O)N[C@@H](C)C(=O)N[C@@H](CCC(N)=O)C(=O)N[C@@H](CCC(=O)O)C(=O)N[C@@H](Cc1ccccc1)C(=O)N[C@H](C(=O)N[C@@H](CCC(=O)O)C(=O)N[C@@H](Cc1c[nH]c2ccccc12)C(=O)N[C@@H](CC(C)C)C(=O)N[C@@H](CC(C)C)C(=O)N[C@@H](C)C(=O)N[C@H](C(=O)NCC(=O)N1CCC[C@H]1C(=O)N[C@@H](CCC(=O)O)C(=O)N[C@@H](CO)C(=O)NCC(=O)N[C@@H](C)C(=O)N1CCC[C@H]1C(=O)N1CCC[C@H]1C(=O)N1CCC[C@H]1C(=O)N[C@@H](CO)C(=O)O)[C@@H](C)O)[C@@H](C)CC [SEQ ID NO 25, Tza-S-Q-G-T-F-T-S-D-Tle-S-K-Q-Nle-ESRRAQEFIEWLLATGPESGAPPPS-OH] (H-[Ala(4-thiazolyl)]SQGTFTSD[Tle]SKQ[Nle]ESRRAQEFIEWLLATGPESGAPPPS-OH; N-terminus assumed) |  |  |  | > 10000
CCCC[C@H](NC(=O)[C@H](CCC(N)=O)NC(=O)[C@H](CCCCN)NC(=O)[C@H](CO)NC(=O)[C@@H](NC(=O)[C@H](CC(=O)O)NC(=O)[C@H](CO)NC(=O)[C@@H](NC(=O)[C@H](Cc1ccccc1)NC(=O)[C@@H](NC(=O)CNC(=O)[C@H](CCC(N)=O)NC(=O)[C@H](CO)NC(=O)[C@@H](N)Cc1cscn1)[C@@H](C)O)[C@@H](C)O)C1CCCCC1)C(=O)N[C@@H](CCC(=O)O)C(=O)N[C@@H](CO)C(=O)N[C@@H](CCCNC(=N)N)C(=O)N[C@@H](CCCNC(=N)N)C(=O)N[C@@H](C)C(=O)N[C@@H](CCC(N)=O)C(=O)N[C@@H](CCC(=O)O)C(=O)N[C@@H](Cc1ccccc1)C(=O)N[C@H](C(=O)N[C@@H](CCC(=O)O)C(=O)N[C@@H](Cc1c[nH]c2ccccc12)C(=O)N[C@@H](CC(C)C)C(=O)N[C@@H](CC(C)C)C(=O)N[C@@H](C)C(=O)N[C@H](C(=O)NCC(=O)N1CCC[C@H]1C(=O)N[C@@H](CCC(=O)O)C(=O)N[C@@H](CO)C(=O)NCC(=O)N[C@@H](C)C(=O)N1CCC[C@H]1C(=O)N1CCC[C@H]1C(=O)N1CCC[C@H]1C(=O)N[C@@H](CO)C(=O)O)[C@@H](C)O)[C@@H](C)CC [SEQ ID NO 24, Tza-S-Q-G-T-F-T-S-D-Chg-S-K-Q-Nle-ESRRAQEFIEWLLATGPESGAPPPS-OH] (H-[Ala(4-thiazolyl)]SQGTFTSD[Chg]SKQ[Nle]ESRRAQEFIEWLLATGPESGAPPPS-OH) |  |  |  | > 10000

The remaining lines, values ahead:

EC50 ([1]; Table 4) [nM] | EC50 ([1]; Table 5, Tza vs. His in position 1) [nM] | EC50 [2] [nM] | solubility at 2 h [3] [µg/mL] | Structure (SMILES)
34.5 | 19.7 | 0.0022 | > 10000 | CC[C@H](C)[C@H](NC(=O)[C@H](Cc1ccccc1)NC(=O)[C@H](CC(=O)O)NC(=O)[C@H](CCC(N)=O)NC(=O)[C@H](C)NC(=O)[C@H](CCCNC(=N)N)NC(=O)[C@H](CCCNC(=N)N)NC(=O)[C@H](CO)NC(=O)[C@H](CCC(=O)O)NC(=O)[C@H](CC(C)C)NC(=O)[C@H](CCC(N)=O)NC(=O)[C@H](CCCCN)NC(=O)[C@H](CO)NC(=O)[C@H](CC(C)C)NC(=O)[C@H](CC(=O)O)NC(=O)[C@H](CO)NC(=O)[C@@H](NC(=O)[C@H](Cc1ccccc1)NC(=O)[C@@H](NC(=O)CNC(=O)[C@H](CCC(N)=O)NC(=O)[C@H](CO)NC(=O)[C@@H](N)Cc1cscn1)[C@@H](C)O)[C@@H](C)O)C(=O)N[C@@H](CCC(=O)O)C(=O)N[C@@H](Cc1c[nH]c2ccccc12)C(=O)N[C@@H](CC(C)C)C(=O)N[C@@H](CC(C)C)C(=O)N[C@@H](C)C(=O)N[C@H](C(=O)NCC(=O)N1CCC[C@H]1C(=O)N[C@@H](CCC(=O)O)C(=O)N[C@@H](CO)C(=O)NCC(=O)N[C@@H](C)C(=O)N1CCC[C@H]1C(=O)N1CCC[C@H]1C(=O)N1CCC[C@H]1C(=O)N[C@@H](CO)C(=O)O)[C@@H](C)O [SEQ ID NO 15, Tza-SQGTFTSDLSKQLESRRAQDFIEWLLATGPESGAPPPS-OH] (H-[Ala(4-thiazolyl)]SQGTFTSDLSKQLESRRAQDFIEWLLATGPESGAPPPS-OH)
44.3 |  | 0.0018 | > 10000 | CCCC[C@H](NC(=O)[C@H](CCC(N)=O)NC(=O)[C@H](CCCCN)NC(=O)[C@H](CO)NC(=O)[C@H](CC(C)C)NC(=O)[C@H](CC(=O)O)NC(=O)[C@H](CO)NC(=O)[C@@H](NC(=O)[C@H](Cc1ccccc1)NC(=O)[C@@H](NC(=O)CNC(=O)[C@H](CCC(N)=O)NC(=O)[C@H](CO)NC(=O)[C@@H](N)Cc1cscn1)[C@@H](C)O)[C@@H](C)O)C(=O)N[C@@H](CCC(=O)O)C(=O)N[C@@H](CO)C(=O)N[C@@H](CCCNC(=N)N)C(=O)N[C@@H](CCCNC(=N)N)C(=O)N[C@@H](C)C(=O)N[C@@H](CCC(N)=O)C(=O)N[C@@H](CC(=O)O)C(=O)N[C@@H](Cc1ccccc1)C(=O)N[C@H](C(=O)N[C@@H](CCC(=O)O)C(=O)N[C@@H](Cc1c[nH]c2ccccc12)C(=O)N[C@@H](CC(C)C)C(=O)N[C@@H](CC(C)C)C(=O)N[C@@H](C)C(=O)N[C@H](C(=O)NCC(=O)N1CCC[C@H]1C(=O)N[C@@H](CCC(=O)O)C(=O)N[C@@H](CO)C(=O)NCC(=O)N[C@@H](C)C(=O)N1CCC[C@H]1C(=O)N1CCC[C@H]1C(=O)N1CCC[C@H]1C(=O)N[C@@H](CO)C(=O)O)[C@@H](C)O)[C@@H](C)CC [SEQ ID NO 3, Tza-S-Q-G-T-F-T-S-D-L-S-K-Q-Nle-ESRRAQDFIEWLLATGPESGAPPPS-OH] (H-[Ala(4-thiazolyl)]SQGTFTSDLSKQ[Nle]ESRRAQDFIEWLLATGPESGAPPPS-OH)
